Results from US20250034106A1, “3-CYCLOAMINO-INDOLE COMPOUNDS AS SEROTONERGIC AGENTS USEFUL FOR THE TREATMENT OF DISORDERS RELATED THERETO” (Mindset Pharma Inc., priority 2021, published 2025).
Like-named read-outs stand apart in the source and are kept apart here.

Experiments:
[1] = cited from earlier work
[2] = DMT and 5-MeO-DMT consumed parenterally; cited from earlier work
[3] = molecular target: human 5-HT2A (h5-HT2A) receptor (Homo sapiens (Human), UniProt P28223); test: FLIPR assay, human 5-HT2A, agonist mode; assay type: cell-based; settings: FLIPR calcium assay
Method: 4. […] Vortexed vigorously for 1-2 minutes.
8. 3×compound in assay buffer was prepared: a. Reference compounds were diluted to required concentration with DMSO. […] Serial dilutions were performed; c.
ii. Calculated the percentage activation by using following equation:
% Activation=(RFU compound−RFU low control)/(RFU top concentration of reference agonist−RFU low control)×100%

human 5-HT2A [4] = molecular target: T1, human 5-HT2A (Homo sapiens (Human), UniProt P28223); test: Human 5-HT2A radioligand binding assay ([3H]-ketanserin); settings: competition with [3H]-ketanserin; read-out: h5-HT2A IC50
human 5-HT2A [5] = molecular target: T1, human 5-HT2A; settings: cited from earlier work

| Structure (SMILES) | duration of action / effects [2] | EC50 [3] [µM] | IC50 (human 5-HT2A [4]) [µM] | also measured |
| --- | --- | --- | --- | --- |
| CN(C)CCc1c[nH]c2cccc(OP(=O)(O)O)c12 [psilocybin, 4-phosphoryloxy-N,N-dimethyltrypatmine] | 5 to 8 h | – | – | abstinence rate ([1]; 12 months follow-up): 67%; abstinence rate ([1]; six months follow-up): 80% |
| [2H]c1[nH]c2c([2H])c([2H])c([2H])c([2H])c2c1C1CC([2H])([2H])N(C)C1([2H])[2H] (stereo not drawn) [Compound 1-44, 3-(1-Methylpyrrolidin-3-yl-2,2,5,5-d4)-1H-indole-2,4,5,6,7-d5] | – | > 10 | < 0.5 | – |
| [2H]C([2H])([2H])N1CCC(c2c[nH]c3ccccc23)C1 (stereo not drawn) [Compound 1-48] | – | – | 0.5 to 10 | – |
| [2H]c1[nH]c2c([2H])c([2H])c([2H])c([2H])c2c1C1CCN(C)C1 (stereo not drawn) [Compound 1-32, 3-(1-Methylpyrrolidin-3-yl)-1H-indole-2,4,5,6,7-d5] | – | > 10 | < 0.5 | – |
| CN(C)CCc1c[nH]c2ccccc12 [DMT, N,N-dimethyltryptamine] | less than 1 h | – | < 0.5 | binding affinity 5-HT2A (human 5-HT2A [5]): 0.237 µM |
| [2H]c1[nH]c2c([2H])c([2H])c([2H])c([2H])c2c1C1CCNCC1 [Compound 1-1, 3-(piperidin-4-yl)-1H-indole-2,4,5,6,7-d5] | – | 1 to 10 | 0.5 to 10 | – |
| [2H]C1([2H])CC(c2c[nH]c3ccc(OC)cc23)C([2H])([2H])N1C (stereo not drawn) [Compound 1-54, 5-Methoxy-3-(1-methylpyrrolidin-3-yl-2,2,5,5-d4)-1H-indole] | – | – | 0.5 to 10 | – |
| COc1ccc2[nH]cc(CCN(C)C)c2c1 [Compound 5-MeO-DMT, 5-methoxy-N,N-dimethyltryptamine] | less than 1 h | – | – | – |
